Reference: US20220033405A1, “PHARMACEUTICAL COMPOSITION FOR PREVENTING OR TREATING CANCER CONTAINING PLK1 INHIBITOR AS ACTIVE INGREDIENT” (NATIONAL CANCER CENTER, priority 2018, published 2022)

How the values were obtained:
MDA-MB-468 cells = experiment: Cancer cell growth inhibition (DAPI nuclei count), breast cancer line; type: cell-based; conditions: treated 1 and 3 days after attachment
Description: For this purpose, experiments were performed using liver cancer, breast cancer, hematologic cancer, cervical cancer, and prostate cancer cell lines, a murine liver cancer cell line HEPA 1-6 and a breast cancer cell line MDA-MB-468 were cultured in a DMEM medium supplemented with 10% fetal bovine serum (FBS) and 1% penicillin/streptomycin, the other cell lines were cultured in a RPMI1640 medium supplemented with the same additives, and the cell lines were used in the experiment.
To examine the ability of the compound to inhibit the growth of the breast cancer cell line, the compounds was treated at each indicated μM concentration 1 and 3 days after cell attachment, and the control was treated with a 0.1% solvent (DMSO). […] After the cells were additionally rinsed once with PBS, cells stained with DAPI were photographed by Cytation 3, and the resulting images were analyzed with Gen5 software (Biotek, USA). Meanwhile, cells that grew in a floating manner without being attached to the culture plate were treated with a 4% paraformaldehyde solution, reacted at room temperature for 10 minutes to fix the cells, and then photographed in a bright field by Cytation3, and the resulting images were analyzed by Gen5 software (Biotek, USA). […]

[1] = tested on: JIMT1 human breast cancer cells; experiment: Cancer cell growth inhibition, M2 variants in JIMT1; type: cell-based
Description: (§1) To examine the ability of the compound to inhibit the growth of the breast cancer cell line, the compounds was treated at each indicated μM concentration 1 and 3 days after cell attachment, and the control was treated with a 0.1% solvent (DMSO). After another two days, the cell lines that were attached to the culture plate and grew were rinsed with 1×PBS and treated with 4% paraformaldehyde at room temperature for 10 minutes to fix the cells. Then, after cells were rinsed twice with PBS, the fixed cells were treated with a 0.5% Triton X-100 solution and reacted at room temperature for 15 minutes, rinsed another three times with PBS, and then treated with a DAPI reagent at 0.5 μg/ml, and reacted at 37° C. for 10 minutes to stain the cell nuclei. After the cells were additionally rinsed once with PBS, cells stained with DAPI were photographed by Cytation 3, and the resulting images were analyzed with Gen5 software (Biotek, USA). Meanwhile, cells that grew in a floating manner without being attached to the culture plate were treated with a 4% paraformaldehyde solution, reacted at room temperature for 10 minutes to fix the cells, and then photographed in a bright field by Cytation3, and the resulting images were analyzed by Gen5 software (Biotek, USA).

[2] = tested on: HepG2 human liver cancer cells; experiment: Reactivity of M2 variants in HepG2; type: cell-based
Description: as §1
To analyze the ability to inhibit the growth of liver cancer cell lines, 6.6×10^3 HepG2 cells per well, 1×10^3 cells of each of Hep3B, SNU-475, and SNU-449 per well, and 2×10^3 SNU-387 cells per well were aliquoted in a 96-well plate, cultured in the same manner as described above, treated with Compound 2 (M2), Compound 3 (M4), Compound 4 (M21), Compound 5 (M23), and Compound 6 (M25), and then the ability to inhibit the growth of cells was analyzed.

liver cancer cell lines = experiment: Mixed treatment of Compound 2 (M2) and BI2536; type: cell-based; conditions: mixture of Compound 2 (M2) at a low concentration and BI2536
HepG2 cells = experiment: Cell viability after treatment (Hoechst 33342); type: cell-based; conditions: HepG2, various concentrations, two treatments 48 hours apart
Description: HepG2 cells, a hepatocellular carcinoma cell line, were plated with 4 to 6 replications at each hit compound concentration in a 96-well microtiter plate supplemented with a culture medium. The hit compound dissolved in DMSO was added the next day according to the design of experiments, and the number of seeded cells was determined by the cell density reaching 80% on the final day of the protocol treated as a cell control. After 24 hours of cell seeding, cells were treated with hit compounds (M2 and BI2536) at various concentrations, and 48 hours after primary treatment, the medium was aspirated and then secondary treatment was performed. After 48 hours, cell nuclei were visualized by 2.5 μM Hoechst 33342 staining at 37° C. for 30 minutes, then the medium was aspirated and washed with a fresh medium. The plate was read using Cytation™ 3 (BioTek, USA), the cell viability was analyzed, and the results were presented as a relative percentage of viable cells after treatment with the hit compound compared to the control treatment.

HepG2 cell = experiment: Apoptosis by annexin V-FITC / PI flow cytometry; type: cell-based; conditions: HepG2, 3 days; M2 20 or 100 μM; BI2536 20 or 100 nM
Description: To analyze the pattern of apoptosis by exposure to M2, HepG2 cell, a hepatocellular carcinoma cell line, were treated with 20 or 100 μM M2 and 20 or 100 nM BI2536 for 3 days. The apoptosis was detected by annexin V-fluorescein isothiocyanate (annexin V-FITC) and propidium iodide (PI) staining of necrotic and apoptosis cells. First, cells were harvested and washed once with PBS. The cells were then resuspended in a 100 μl binding buffer containing 4 μl of Annexin V (BD, 51-65874X) and PI (BD, 51-66211E). The cells were stained at 37° C. for 15 minutes in the dark and then analyzed using FACSan (BD, San Jose, Calif.). Data was analyzed using CELLQuest software (BD).

[3] = tested on: HepG2 orthotopic xenograft; experiment: Liver cancer orthotopic xenograft model (HepG2), 19 injections; type: in vivo, BalB/c nude mice; conditions: M2 9.1 mg/kg
Description: 5×10^6 HepG2 cells, which are a hepatocellular carcinoma cell line, were injected into the back skin of BalB/c nude mice, and when a sufficient cancer tissue was formed about 3 weeks later, the tissue was removed, uniformly cut into 1 mm^3, and transplanted into the right median lobe of the liver by excising the abdomen within 1 cm.
The doses of 9.1 mg/kg of M2 and 1 mg/kg of BI2536 were selected based on the present inventor's previous in vitro experiments on HCC cells. Administration began 7 days after cell injection, and an equivalent amount of DMSO for the highest concentration of drug was used as a solvent control for each experiment. Each drug was injected a total of 19 injections based on 5 times/week.

human liver cancer PDX = experiment: Orthotopic xenograft model using human liver cancer PDX; type: in vivo, BalB/C nude mice; conditions: M2 40 mg/kg i.p. once every two days, 11 treatments for 3 weeks
Description: A cancer tissue isolated from human liver cancer was transplanted into skin tissues of BalB/C nude mice and the skin tissues were grown into cancer tissues, so that a tissue established as a PDX model was used, uniformly cut into 1 mm^3, and transplanted into the right median lobe of the liver by excising the abdomen within 1 cm. Sm all spots were confirmed on the MRI image about 10 days after transplanting the liver cancer tissue into 20 BalB/C nude mice by the above method, so that rodents with well-established liver cancer were divided into 3 groups (see FIGS. 22A, 22B, and 22C), a solvent control (DMSO), a hit (M2) material at 40 mg/kg, and BI2536 at 4 mg/kg were injected into the abdominal cavity once every two days using less than 1.5% DMSO as a solvent (vehicle), and once a week, MRI images were used to select (follow up) rodents with constant tissue growth. Then, when the rapidly growing cancer tissue was 1 cm or less, the cancer tissue was observed after sacrificing the mice (11 treatments for 3 weeks).

SMILES: Cn1c2nc(=O)[nH]c(=O)c-2nc2ccccc21 [Compound 2, 10-methyl-2H,3H,4H,10H-benzo[g]pteridine-2,4-dione]
- number of cells (MDA-MB-468 cells): the number of cells was remarkably reduced in proportion to the treatment concentration
- number of cancer cells [1]: remarkably reduced the number of cancer cells in a dose-dependent manner
- areas of liver cancer cells [2]: remarkably reduced in a dose-dependent manner
- inhibition of cancer cells by mixed treatment (liver cancer cell lines): the cooperative ability of BI2536 to inhibit cancer cells could be observed
- cell viability (HepG2 cells): the relatively less the cell viability became
- apoptosis cells (HepG2 cell): apoptosis cells were increased
- apoptosis with increasing dose (HepG2 cell): apoptosis was increased in a dose-dependent manner
- progression of the HCC xenograft calculated by the growth inhibition index ([3]; BI2536 1 mg/kg, 19 injections): suppressed the progression of the HCC xenograft
- growth of tumor cells (macroscopic morphology, MRI) ([3]; BI2536 1 mg/kg, 19 injections, 5 times/week): the growth of tumor cells was suppressed
- mitotic index ([3]; histological staining, compared to the control): decreased
- volume of the cancer tissue (human liver cancer PDX): reduced remarkably
- weight of the cancer tissue (human liver cancer PDX): reduced remarkably
